≈ marks a conversion by molar mass, not a printed value. Where two headings read alike, the source gives them in different places.
Columns and labels:
Type in all cases: cell-based
[1] = system: Streptococcus pneumoniae ATCC 49619; test: Broth microdilution MIC, S. pneumoniae ATCC 49619; details: read-out: MIC S. pneumoniae ATCC 49619
Excerpt: (§1) Bacteria tested are Staphylococcus aureus NRS384 (a methicillin-resistant Staphylococcus aureus, MRSA), Staphylococcus aureus ATCC 29213 (a methicillin-sensitive Staphylococcus aureus, MSSA), Streptococcus pneumoniae ATCC 49619, Enterococcus faecalis ATCC 29212, Enterococcus faecium ATCC 700221 (a vancomycin-resistant enterococcus, VRE), Bacillus subtilis ATCC 6633, and Escherichia coli ATCC 25922.
(§2) Staphylococcus aureus NRS384 was obtained from NARSA (Network on Antimicrobial Resistance in Staphylococcus aureus, now the strain collection is in BEI resources). Other bacterial isolates were from ATCC (The American Type Culture Collection). Upon receiving the bacteria samples from aforementioned institutes, the bacteria were cultured according to the manuals provided by the suppliers. The bacteria were stored in 25% glycerol (final concentration) at −80° C.
(§3) On the day of testing, the compounds were dissolved in pure DMSO (Sigma 276855-1L) to […] as stock. In a v-bottom 96-well plate (Axygen-wipp02280), 20 μl DMSO was added into well 2 to well 12 by manual pipetting. Into well 1, 12.8 μL of compound DMSO stock (20 mg/ml) was added and mixed with 27.2 μl DMSO by pipetting. Two fold serial dilutions were performed by transferring and mixing 20 μl of solution from well 1 to well 2, then well 2 to well 3 and so forth until well 11. The well 12 was loaded with 20 μl DMSO without compounds. This was drug ‘mother plate’. From well 1 to well 12, the drug concentrations in the mother plate were […] in DMSO. A multi-pipette was used to perform the serial dilutions. The concentration may be adjusted according to the potency of the compounds. An Echo® Acoustic liquid handling system may be used to replace manual pipetting to make the daughter plates.
(§4) One day prior to the day of MIC testing, bacterial strains were streaked out from −80° C. glycerol stocks onto MHA plates and incubated at 37° C. for 20 hours. Streptococcus pneumoniae was streaked on blood agar and incubated at 37° C. in 5% CO2. The single colonies were picked by using an inoculation loop (Greiner-731175) and suspended into 5 ml sterile saline. The turbidity of the suspension was adjusted to 0.10 (Siemens MicroScan turbidity meter), equal to ˜1.0×10^8 cfu/ml. The bacterial suspension was diluted 200× in corresponding test medium (Table 1). This was used to inoculate daughter plates.
(§5) For preparing u-bottom 96-well ‘daughter plates’ (Costar 3788), an aliquot of 1 μl solution from mother plate was then replicating transferred into the daughter plate using a multi-pipette.
(§6) An aliquot of 99 μl of the bacterial suspension was inoculated into each well of the daughter plates using a multi-pipette. Each well contained ˜5.0×10^5 cfu/ml bacteria, 1% DMSO and serially diluted compounds at 64, 32, 16, 8, 4, 2, 1, 0.5, 0.25, 0.125, 0.0625 and 0 μg/ml from well 1 to well 12 respectively, in 100 μl corresponding test medium.
(§7) The plates were incubated in ambient atmosphere and in a 37° C. incubator for 20 hours.
(§8) Compounds of the present invention were tested for antibacterial activity against a variety of bacterial organism including Bacillus subtilis, Staphylococcus aureus, Enterococcus faecalis, Enterococcus faecium, Streptococcus pneumoniae and Escherichia coli. […] Compounds described in Examples 2, 44, 53, 56, 90, 134, 212, 213, 214, 218, 222, 304, 305, and 307 had MIC of ≤1 μg/ml against S. aureus NRS 384 (MRSA) (μg/ml) and E. faecium ATCC 700221 (VRE) (μg/ml).

[2] = system: Staphylococcus aureus ATCC 29213 (MSSA); test: Broth microdilution MIC, S. aureus ATCC 29213 (MSSA); details: read-out: MIC S. aureus ATCC 29213 (MSSA)
Excerpt: as §1, §2, §3, §4, §5, §6, §7, §8

[3] = system: Enterococcus faecium ATCC 700221 (VRE); test: Broth microdilution MIC, E. faecium ATCC 700221 (VRE); details: Enterococcus faecium, read-out: MIC E. faecium ATCC 700221 (VRE)
Excerpt: as §1, §2, §3, §4, §5, §6, §7, §8

[4] = system: Bacillus subtilis ATCC 6633; test: Broth microdilution MIC, B. subtilis ATCC 6633; details: read-out: MIC B. subtilis ATCC 6633
Excerpt: as §1, §2, §3, §4, §5, §6, §7, §8

[5] = system: Escherichia coli ATCC 25922; test: Broth microdilution MIC, E. coli ATCC 25922 (MHIIB w & w/o 4 mM EDTA); details: for MIC: Escherichia coli, read-out: MIC E. coli ATCC 25922; for MIC E. coli ATCC 25922 + 4 mM EDTA: with 4 mM EDTA
Excerpt: as §1, §2, §3, §4, §5, §6, §7, §8

[6] = system: Enterococcus faecalis ATCC 29212; test: Broth microdilution MIC, E. faecalis ATCC 29212; details: read-out: MIC E. faecalis ATCC 29212
Excerpt: as §1, §2, §3, §4, §5, §6, §7, §8

[7] = system: Staphylococcus aureus NRS384 (MRSA); test: Broth microdilution MIC, S. aureus NRS384 (MRSA); details: Staphylococcus aureus, read-out: MIC NRS 384 (MRSA)
Excerpt: as §1, §2, §3, §4, §5, §6, §7, §8

[8] = ATCC49619, broth microdilution, 37° C., 20 hours
[9] = broth microdilution, 37° C., 20 hours
[10] = ATCC6633, broth microdilution, 37° C., 20 hours
[11] = ATCC25922, without EDTA, broth microdilution, 37° C., 20 hours
[12] = ATCC29212, broth microdilution, 37° C., 20 hours

Compound: O=C(NCCn1ncc2nc(NCc3ccc(Cl)c(Cl)c3)[nH]c(=O)c21)c1cnoc1 [Compound 86, N-(2-(5-((3,4-dichlorobenzyl)amino)-7-oxo-6,7-dihydro-1H-pyrazolo[4,3-d]pyrimidin-1-yl)ethyl)isoxazole-4-carboxamide]
- MIC [1, 8]: > 64 µg/mL
- MIC [2, 9]: > 64 µg/mL
- MIC [3, 9]: > 64 µg/mL
- MIC [4, 10]: > 64 µg/mL
- MIC [5, 11]: > 64 µg/mL
- MIC E. coli ATCC 25922 + 4 mM EDTA [5, 9]: >64 µg/mL
- MIC [6, 12]: > 64 µg/mL
- MIC [7, 9]: > 64 µg/mL

Compound: O=c1[nH]c(NCc2ccc(Cl)c(Cl)c2)nc2cnn(C3CCOCC3)c12 [Compound 121, 5-((3,4-Dichlorobenzyl)amino)-1-(tetrahydro-2H-pyran-4-yl)-1H-pyrazolo[4,3-d]pyrimidin-7(6H)-one]
- MIC [1, 8]: 4 µg/mL (≈ 10.1 µM)
- MIC [2, 9]: 4 µg/mL (≈ 10.1 µM)
- MIC [3, 9]: 2 µg/mL (≈ 5.07 µM)
- MIC [4, 10]: 0.5 µg/mL (≈ 1.27 µM)
- MIC [5, 11]: > 64 µg/mL
- MIC E. coli ATCC 25922 + 4 mM EDTA [5, 9]: >64 µg/mL
- MIC [6, 12]: 4 µg/mL (≈ 10.1 µM)
- MIC [7, 9]: 2 µg/mL (≈ 5.07 µM)

Compound: Cc1noc(C)c1C(=O)NCCn1ncc2nc(NCc3ccc(Cl)c(Cl)c3)[nH]c(=O)c21 [Compound 79, N-(2-(5-((3,4-dichlorobenzyl)amino)-7-oxo-6,7-dihydro-1H-pyrazolo[4,3-d]pyrimidin-1-yl)ethyl)-3,5-dimethylisoxazole-4-carboxamide]
- MIC [1, 8]: 8 µg/mL (≈ 16.8 µM)
- MIC [2, 9]: 16 µg/mL (≈ 33.6 µM)
- MIC [3, 9]: 8 µg/mL (≈ 16.8 µM)
- MIC [4, 10]: 16 µg/mL (≈ 33.6 µM)
- MIC [5, 11]: > 64 µg/mL
- MIC E. coli ATCC 25922 + 4 mM EDTA [5, 9]: >64 µg/mL
- MIC [6, 12]: 16 µg/mL (≈ 33.6 µM)
- MIC [7, 9]: 32 µg/mL (≈ 67.2 µM)

Compound: O=c1[nH]c(NCc2ccc(F)c(F)c2)nc2c(F)nn(CC3CCO3)c12 (centres unmarked) [Compound 315, 5-[(3,4-difluorophenyl)methylamino]-3-fluoro-1-(oxetan-2-ylmethyl)-6H-pyrazolo[4,3-d]pyrimidin-7-one]
- MIC [1, 8]: 2 µg/mL (≈ 5.47 µM)
- MIC [2, 9]: 4 µg/mL (≈ 10.9 µM)
- MIC [3, 9]: 2 µg/mL (≈ 5.47 µM)
- MIC [4, 10]: 1 µg/mL (≈ 2.74 µM)
- MIC [5, 11]: > 64 µg/mL
- MIC E. coli ATCC 25922 + 4 mM EDTA [5, 9]: >64 µg/mL
- MIC [6, 12]: 8 µg/mL (≈ 21.9 µM)
- MIC ([7]; S. aureus NRS 384, broth microdilution, 37° C., 20 hours): 4 µg/mL (≈ 10.9 µM)

Compound: Cl.N=C(N)NCCn1ncc2nc(NCc3ccc(Cl)c(Cl)c3)[nH]c(=O)c21 [Compound 292, 1-(2-(5-((3,4-dichlorobenzyl)amino)-7-oxo-6,7-dihydro-1H-pyrazolo[4,3-d]pyrimidin-1-yl)ethyl)guanidine hydrochloride]
- MIC [1, 8]: 64 µg/mL
- MIC [2, 9]: 16 µg/mL
- MIC [3, 9]: 64 µg/mL
- MIC [4, 10]: 16 µg/mL
- MIC [5, 11]: > 64 µg/mL
- MIC E. coli ATCC 25922 + 4 mM EDTA [5, 9]: >64 µg/mL
- MIC [6, 12]: 64 µg/mL
- MIC [7, 9]: 16 µg/mL

Compound: O=c1[nH]c(NCc2ccc(Cl)c(Cl)c2)nc2cnn(C[C@@H]3CO[C@@H](CO)CO3)c12 [Compound 207, 5-((3,4-dichlorobenzyl)amino)-1-(((2R,5S)-5-(hydroxymethyl)-1,4-dioxan-2-yl)methyl)-1H-pyrazolo[4,3-d]pyrimidin-7(6H)-one]
- MIC [1, 8]: 8 µg/mL (≈ 18.2 µM)
- MIC [2, 9]: 16 µg/mL (≈ 36.3 µM)
- MIC [3, 9]: 4 µg/mL (≈ 9.08 µM)
- MIC [4, 10]: 2 µg/mL (≈ 4.54 µM)
- MIC [5, 11]: > 64 µg/mL
- MIC E. coli ATCC 25922 + 4 mM EDTA [5, 9]: >64 µg/mL
- MIC [6, 12]: 8 µg/mL (≈ 18.2 µM)
- MIC [7, 9]: 16 µg/mL (≈ 36.3 µM)

Compound: CNC(=O)C(C)(C)CCCn1ncc2nc(NCc3ccc(Cl)c(Cl)c3)[nH]c(=O)c21 [Compound 198, 5-(5-((3,4-dichlorobenzyl)amino)-7-oxo-6,7-dihydro-1H-pyrazolo[4,3-d]pyrimidin-1-yl)-N,2,2-trimethylpentanamide]
- MIC [1, 8]: 16 µg/mL (≈ 35.4 µM)
- MIC [2, 9]: 16 µg/mL (≈ 35.4 µM)
- MIC [3, 9]: 16 µg/mL (≈ 35.4 µM)
- MIC [4, 10]: 4 µg/mL (≈ 8.86 µM)
- MIC [5, 11]: > 64 µg/mL
- MIC E. coli ATCC 25922 + 4 mM EDTA [5, 9]: >64 µg/mL
- MIC [6, 12]: 16 µg/mL (≈ 35.4 µM)
- MIC [7, 9]: 16 µg/mL (≈ 35.4 µM)

Compound: Cn1ncc2nc(NCc3ccc(Cl)cc3)[nH]c(=O)c21 [Compound 25, 5-((4-chlorobenzyl)amino)-1-methyl-1H-pyrazolo[4,3-d]pyrimidin-7(6H)-one]
- MIC [1, 8]: 4 µg/mL (≈ 13.8 µM)
- MIC [2, 9]: 8 µg/mL (≈ 27.6 µM)
- MIC [3, 9]: 16 µg/mL (≈ 55.2 µM)
- MIC [4, 10]: 8 µg/mL (≈ 27.6 µM)
- MIC [5, 11]: > 64 µg/mL
- MIC E. coli ATCC 25922 + 4 mM EDTA [5, 9]: 64 µg/mL
- MIC [6, 12]: 16 µg/mL (≈ 55.2 µM)
- MIC [7, 9]: 8 µg/mL (≈ 27.6 µM)

Compound: CC(C)(C)OC(=O)NCCOCCn1ncc2nc(NCc3ccc(Cl)c(Cl)c3)[nH]c(=O)c21 [Compound 100, tert-Butyl (2-(2-(5-((3,4-dichlorobenzyl)amino)-7-oxo-6,7-dihydro-1H-pyrazolo[4,3-d]pyrimidin-1-yl)ethoxy)ethyl)carbamate]
- MIC ([1]; ATCC49619, 20 h): 8 µg/mL (≈ 16.1 µM)
- MIC ([2]; 20 h): > 64 µg/mL
- MIC ([3]; 20 h): 4 µg/mL (≈ 8.04 µM)
- MIC ([4]; ATCC6633, 20 h): 2 µg/mL (≈ 4.02 µM)
- MIC ([5]; ATCC25922, 20 h): > 64 µg/mL
- MIC E. coli ATCC 25922 + 4 mM EDTA [5, 9]: >64 µg/mL
- MIC ([6]; ATCC29212, 20 h): > 64 µg/mL
- MIC ([7]; 20 h): > 64 µg/mL

Compound: O=C(O)CCn1ncc2nc(NCc3ccc(Cl)c(Cl)c3)[nH]c(=O)c21 [Compound 229, 3-(5-((3,4-dichlorobenzyl)amino)-7-oxo-6,7-dihydro-1H-pyrazolo[4,3-d]pyrimidin-1-yl)propanoic Acid]
- MIC [1, 8]: 16 µg/mL (≈ 41.9 µM)
- MIC [2, 9]: > 64 µg/mL
- MIC [3, 9]: 64 µg/mL (≈ 167 µM)
- MIC [4, 10]: > 64 µg/mL
- MIC [5, 11]: > 64 µg/mL
- MIC E. coli ATCC 25922 + 4 mM EDTA [5, 9]: >64 µg/mL
- MIC [6, 12]: 64 µg/mL (≈ 167 µM)
- MIC [7, 9]: > 64 µg/mL

From patent US10723741B1, “DNA polymerase IIIC inhibitors and use thereof” (Acurx Pharmaceuticals, LLC, priority 2018, dated 2020)
